These compounds were tested against T1, E-selectin (Homo sapiens, UniProt P16581) (assay: Compound was tested for its ability to inhibit the binding to recombinant human Selectin E immobilized on SPA beads of radiolabeled HL60 cell membrane containing sLex.).
T1 sequence (P16581 whole entry): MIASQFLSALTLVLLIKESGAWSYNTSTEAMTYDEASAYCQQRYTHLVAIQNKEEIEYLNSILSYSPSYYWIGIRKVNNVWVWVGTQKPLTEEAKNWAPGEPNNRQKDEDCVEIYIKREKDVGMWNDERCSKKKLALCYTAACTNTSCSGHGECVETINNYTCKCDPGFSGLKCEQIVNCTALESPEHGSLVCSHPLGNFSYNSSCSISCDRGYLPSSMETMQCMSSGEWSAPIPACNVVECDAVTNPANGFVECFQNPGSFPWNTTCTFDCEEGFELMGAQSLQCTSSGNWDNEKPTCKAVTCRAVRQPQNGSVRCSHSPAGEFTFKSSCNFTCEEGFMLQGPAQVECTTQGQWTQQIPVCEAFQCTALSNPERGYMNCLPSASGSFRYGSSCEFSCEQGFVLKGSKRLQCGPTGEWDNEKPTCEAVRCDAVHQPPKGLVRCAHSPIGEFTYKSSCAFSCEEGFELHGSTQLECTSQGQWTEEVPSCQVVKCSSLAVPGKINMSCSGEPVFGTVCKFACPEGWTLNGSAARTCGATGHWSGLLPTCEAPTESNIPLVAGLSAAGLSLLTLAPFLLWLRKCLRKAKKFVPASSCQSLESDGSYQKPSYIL
Format: cell membranes, HL-60

IC50	SMILES
> 10000 µM	C[C@@H]1O[C@@H](O[C@@H]2CCCC[C@H]2O[C@@H]2O[C@@H](CO)[C@H](O)[C@H](OCC(=O)O)[C@@H]2O)[C@@H](O)[C@@H](O)[C@@H]1O
2100 µM	CC(O[C@@H]1O[C@@H](C)[C@@H](O)[C@H](O)[C@@H]1O)C(C)O[C@@H]1O[C@@H](CO)[C@H](O)[C@H](OCC(=O)O)[C@@H]1O (stereo partly drawn)
500 µM	C[C@@H]1O[C@@H](OC2CCCCC2O[C@@H]2O[C@@H](CO)[C@H](O)[C@H](OCC(=O)O)[C@@H]2O)[C@@H](O)[C@@H](O)[C@@H]1O (stereo partly drawn)

— ChEMBL document CHEMBL1129722, “Synthesis and biological activity of conformationally constrained sialyl Lewis X analogues with reduced carbohydrate character” (Bioorg Med Chem Lett, 1996)
